In the NIST ThermoML archive (doi:10.1016/j.jct.2018.08.037):
Where “and” joins values, the source holds several entries; their conditions need not be identical. Equal values may be shown once. ± gives the expanded uncertainty stated by the source.

Test: mn = molality of the nth substance listed, in mol/kg
Conditions: 298.15 K, 100 kPa, Liquid, Buoyancy - hydrostatic balance

Structure (SMILES) | mass density (m1 = 1) | mass density (m1 = 2) | mass density (m1 = 1.05) | mass density (m1 = 1.62) | mass density (m1 = 2.21) | mass density (m1 = 2.22) | mass density (m1 = 2.84) | mass density (m1 = 2.86) | mass density (m1 = 3.51) | mass density (m1 = 6.68)
[Na+].[OH-] [sodium hydroxide] + O | 1043 ± 14 kg/m3 and 1041 ± 14 kg/m3 | 1081 ± 14 kg/m3 |  |  |  |  |  |  |  | 
[Na+].[O-][Cl+3]([O-])([O-])[O-] [sodium perchlorate] + O |  |  | 1076 ± 14 kg/m3 and 1072 ± 15 kg/m3 | 1110 ± 14 kg/m3 | 1148 ± 14 kg/m3 | 1145 ± 14 kg/m3 | 1185 ± 16 kg/m3 | 1180 ± 16 kg/m3 | 1223 ± 14 kg/m3 | 1360 ± 14 kg/m3
